Read-outs that look alike come from different tables or passages of the source.
Key:
BTK = BTK (Homo sapiens (Human), UniProt Q06187); assay: In Vitro BTK Kinase Assay: Btk-PolyGAT-LS Assay; type: biochemical; details: BTK enzyme 0.25 nM, ATP 10 μM, polyGAT 100 nM, 30 minutes incubation, TRF readout; read-out: IC50
Outline: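 Human BTK activity was measured with final 10 μM ATP and 100 nM polyGAT substrate in pH 7.5 Tris buffer with 10 mM MgCl2, DTT, Triton X-100 and casein.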

[1] = tested on: CD69 expression on CD19+ B cells in human whole blood stimulated with anti-human IgD; assay: In Vitro whole blood CD69 Assay; type: cell-based; details: human heparinized whole blood, anti-human IgD stimulation overnight, percentage of CD19+ B cells expressing CD69, flow cytometry, read-out: IC50

Sequence of BTK (Q06187 whole entry): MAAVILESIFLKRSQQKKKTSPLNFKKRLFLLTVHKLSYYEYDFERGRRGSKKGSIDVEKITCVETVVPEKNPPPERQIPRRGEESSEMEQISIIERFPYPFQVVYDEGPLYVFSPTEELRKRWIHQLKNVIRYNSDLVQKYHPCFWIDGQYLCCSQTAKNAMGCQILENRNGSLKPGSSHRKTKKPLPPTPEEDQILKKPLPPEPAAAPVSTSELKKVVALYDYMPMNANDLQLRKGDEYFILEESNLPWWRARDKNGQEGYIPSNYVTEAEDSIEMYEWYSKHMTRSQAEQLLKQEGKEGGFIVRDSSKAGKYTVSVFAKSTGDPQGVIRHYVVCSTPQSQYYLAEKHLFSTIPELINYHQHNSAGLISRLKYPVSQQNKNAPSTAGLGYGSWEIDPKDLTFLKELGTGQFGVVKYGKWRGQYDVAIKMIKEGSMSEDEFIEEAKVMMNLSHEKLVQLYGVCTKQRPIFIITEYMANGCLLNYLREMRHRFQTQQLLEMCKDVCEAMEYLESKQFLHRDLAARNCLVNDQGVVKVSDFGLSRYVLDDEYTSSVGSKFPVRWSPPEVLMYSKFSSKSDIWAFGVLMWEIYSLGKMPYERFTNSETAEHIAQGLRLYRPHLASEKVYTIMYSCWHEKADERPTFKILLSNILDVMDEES

SMILES	IC50 (BTK)	IC50 ([1]; Homo sapiens, B-cell)	IC50 [1]
C=CC(=O)NC12CCC(Oc3nc(-c4cnn(C)c4)cn4nccc34)(CC1)C2 [Example 125, N-(4-((6-(1-methyl-1H-pyrazol-4-yl)pyrazolo[1,5-a]pyrazin-4-yl)oxy)bicyclo[2.2.1]heptan-1-yl)acrylamide]	1 to 10 nM	1000 to 10000 nM	
C=CC(=O)N1CC2CC(C1)C2COc1nc(-c2cnn(C)c2)cn2nccc12 (centres unmarked) [Example 126, 1-(6-(((6-(1-methyl-1H-pyrazol-4-yl)pyrazolo[1,5-a]pyrazin-4-yl)oxy)methyl)-3-azabicyclo[3.1.1]heptan-3-yl)prop-2-en-1-one]	< 1 nM	< 1000 nM	
C=CC(=O)N1C[C@H]2C[C@@H](C1)[C@@H]2COc1nc(-c2cnn(C)c2)cn2nccc12 [Example 127, 1-((1R,5S,6r)-6-(((6-(1-methyl-1H-pyrazol-4-yl)pyrazolo[1,5-a]pyrazin-4-yl)oxy)methyl)-3-azabicyclo[3.1.1]heptan-3-yl)prop-2-en-1-one]	< 1 nM		1000 to 10000 nM
C=CC(=O)N1C[C@H]2C[C@@H](C1)[C@H]2COc1nc(-c2cnn(C)c2)cn2nccc12 [Example 128, 1-((1R,5S,6s)-6-(((6-(1-methyl-1H-pyrazol-4-yl)pyrazolo[1,5-a]pyrazin-4-yl)oxy)methyl)-3-azabicyclo[3.1.1]heptan-3-yl)prop-2-en-1-one]	< 1 nM		< 1000 nM
C=CC(=O)N(C)c1ccc(F)c(Oc2nc(-c3cnn(C)c3)cn3nccc23)c1 [Example 130, N-(4-fluoro-3-((6-(1-methyl-1H-pyrazol-4-yl)pyrazolo[1,5-a]pyrazin-4-yl)oxy)phenyl)-N-methylacrylamide]	1 to 10 nM	1000 to 10000 nM	
C=CC(=O)N(CC(F)F)[C@H]1CC[C@@H](Oc2nc(-c3cnn(C)c3)cn3nccc23)C1 [Example 146, N-(2,2-difluoroethyl)-N-((1S,3R)-3-((6-(1-methyl-1H-pyrazol-4-yl)pyrazolo[1,5-a]pyrazin-4-yl)oxy)cyclopentyl)acrylamide]	< 1 nM	< 1000 nM	
CC#CC(=O)N[C@H]1CC[C@@H](Oc2cc(-c3cnn(C)c3)cn3nccc23)C1 [Example 164, N-[(1S,3R)-3-[6-(1-methylpyrazol-4-yl)pyrazolo[1,5-a]pyridin-4-yl]oxycyclopentyl]but-2-ynamide]	1 to 10 nM	1000 to 10000 nM	
C=CC(=O)N[C@H]1C[C@@](C)(Oc2nc(-c3cnn(C)c3)cn3ncc(C4CC4)c23)C1 [Example 166, N-((cis)-3-((3-cyclopropyl-6-(1-methyl-1H-pyrazol-4-yl)pyrazolo[1,5-a]pyrazin-4-yl)oxy)-3-methylcyclobutyl)acrylamide]	< 1 nM	< 1000 nM	
C=CC(=O)N1CC[C@@H]2[C@@H](Oc3nc(-c4cnn(C)c4)cn4nccc34)C(C)(C)[C@@H]21 [Example 169, 1-((1R,5S,6R)-7,7-dimethyl-6-((6-(1-methyl-1H-pyrazol-4-yl)pyrazolo[1,5-a]pyrazin-4-yl)oxy)-2-azabicyclo[3.2.0]heptan-2-yl)prop-2-en-1-one]	1 to 10 nM	1000 to 10000 nM	
C=CC(=O)N1CC[C@@H]2[C@H]1C(C)(C)[C@H]2Oc1nc(-c2cnn(C)c2)cn2nccc12 [Example 170, 1-((1S,5R,6S)-7,7-dimethyl-6-((6-(1-methyl-1H-pyrazol-4-yl)pyrazolo[1,5-a]pyrazin-4-yl)oxy)-2-azabicyclo[3.2.0]heptan-2-yl)prop-2-en-1-one]	10 to 1000 nM	1000 to 10000 nM	
C=CC(=O)N1CC[C@H]2[C@@H](Oc3nc(-c4cnn(C)c4)cn4nccc34)C(C)(C)[C@H]21 [Example 171, 1-((1S,5R,6R)-7,7-dimethyl-6-((6-(1-methyl-1H-pyrazol-4-yl)pyrazolo[1,5-a]pyrazin-4-yl)oxy)-2-azabicyclo[3.2.0]heptan-2-yl)prop-2-en-1-one]	10 to 1000 nM	1000 to 10000 nM	
C=CC(=O)N1CC[C@@H]2[C@H](Oc3nc(-c4cnn(C)c4)cn4nccc34)C(C)(C)[C@@H]21 [Example 172, 1-((1R,5S,6S)-7,7-dimethyl-6-((6-(1-methyl-1H-pyrazol-4-yl)pyrazolo[1,5-a]pyrazin-4-yl)oxy)-2-azabicyclo[3.2.0]heptan-2-yl)prop-2-en-1-one]	< 1 nM	1000 to 10000 nM	
C=CC(=O)N(C)[C@@H]1CC[C@H](Oc2nc(-c3cnn(C)c3)cn3ncc(-c4ccccc4)c23)C1 [Example 173, N-methyl-N-((1R,3S)-3-(6-(1-methylpyrazol-4-yl)-3-phenyl-pyrazolo[1,5-a]pyrazin-4-yl)oxycyclopentyl)prop-2-enamide]	1 to 10 nM	1000 to 10000 nM	
C=CC(=O)N1C[C@H]2C[C@H](Oc3nc(-c4cnn(C)c4)cn4nccc34)C[C@H]2C1 [Example 174, 1-((3aR,5s,6aS)-5-((6-(1-methyl-1H-pyrazol-4-yl)pyrazolo[1,5-a]pyrazin-4-yl)oxy)hexahydrocyclopenta[c]pyrrol-2(1H)-yl)prop-2-en-1-one]	< 1 nM	< 1000 nM	
CC#CC(=O)N(C)[C@H]1CCC[C@@H](Oc2nc(-c3cnn(C)c3)cn3nccc23)C1 [Example 177, N-methyl-N-((1S,3R)-3-((6-(1-methyl-1H-pyrazol-4-yl)pyrazolo[1,5-a]pyrazin-4-yl)oxy)cyclohexyl)but-2-ynamide]	< 1 nM	< 1000 nM	
CC#CC(=O)N(C)[C@@H]1CCC[C@H](Oc2nc(-c3cnn(C)c3)cn3nccc23)C1 [Example 178, N-methyl-N-((1R,3S)-3-((6-(1-methyl-1H-pyrazol-4-yl)pyrazolo[1,5-a]pyrazin-4-yl)oxy)cyclohexyl)but-2-ynamide]	10 to 1000 nM	1000 to 10000 nM	
CC#CC(=O)N[C@H]1CCC[C@@H](Oc2nc(-c3cnn(C)c3)cn3nccc23)C1 [Example 179, N-((1S,3R)-3-((6-(1-methyl-1H-pyrazol-4-yl)pyrazolo[1,5-a]pyrazin-4-yl)oxy)cyclohexyl)but-2-ynamide]	< 1 nM	< 1000 nM	
C=CC(=O)N(C)CCOc1nc(-c2cnn(C)c2)cn2nccc12 [Example 183, N-methyl-N-(3-((6-(1-methyl-1H-pyrazol-4-yl)pyrazolo[1,5-a]pyrazin-4-yl)oxy)ethyl)acrylamide]	1 to 10 nM	1000 to 10000 nM	
C=CC(=O)N[C@H]1C[C@@](C)(Oc2nc(-c3cnc(C)s3)cn3nccc23)C1 [Example 186, N-((1s,3s)-3-methyl-3-((6-(2-methylthiazol-5-yl)pyrazolo[1,5-a]pyrazin-4-yl)oxy)cyclobutyl)acrylamide]	< 1 nM	< 1000 nM	
C=CC(=O)N1CCC[C@](F)(COc2nc(-c3cnn(C)c3)cn3nccc23)C1 [Example 187, (R)-1-(3-fluoro-3-(((6-(1-methyl-1H-pyrazol-4-yl)pyrazolo[1,5-a]pyrazin-4-yl)oxy)methyl)piperidin-1-yl)prop-2-en-1-one]	< 1 nM	< 1000 nM	
C=CC(=O)N1CCC[C@@](F)(COc2nc(-c3cnn(C)c3)cn3nccc23)C1 [Example 188, (S)-1-(3-fluoro-3-(((6-(1-methyl-1H-pyrazol-4-yl)pyrazolo[1,5-a]pyrazin-4-yl)oxy)methyl)piperidin-1-yl)prop-2-en-1-one]	1 to 10 nM	< 1000 nM	
C=CC(=O)N1CCC(C)(COc2nc(-c3cnn(C)c3)cn3nccc23)CC1 [Example 189, 1-(4-methyl-4-(((6-(1-methyl-1H-pyrazol-4-yl)pyrazolo[1,5-a]pyrazin-4-yl)oxy)methyl)piperidin-1-yl)prop-2-en-1-one]	1 to 10 nM	1000 to 10000 nM	
C[C@@H]1O[C@H]1C(=O)N1CC[C@@H]2[C@H]1C[C@@]2(C)Oc1nc(-c2cnn(C)c2)cn2nccc12 [Example 192, ((1R,5R,6R)-6-methyl-6-((6-(1-methyl-1H-pyrazol-4-yl)pyrazolo[1,5-a]pyrazin-4-yl)oxy)-2-azabicyclo[3.2.0]heptan-2-yl)((2R,3S)-3-methyloxiran-2-yl)methanone]	10 to 1000 nM	1000 to 10000 nM	
C=CC(=O)N1C[C@H]2C[C@@H](Oc3nc(-c4cnn(C)c4)cn4ncc(C)c34)[C@H]2C1 [Example 197, 1-((1S,5R,6R)-6-((3-methyl-6-(1-methyl-1H-pyrazol-4-yl)pyrazolo[1,5-a]pyrazin-4-yl)oxy)-3-azabicyclo[3.2.0]heptan-3-yl)prop-2-en-1-one]	< 1 nM	< 1000 nM	
C=CC(=O)N(C)[C@H]1C[C@@](C)(Oc2nc(-c3cnn(C)c3)cn3ncc(F)c23)C1 [Example 211, N-((1s,3s)-3-((3-fluoro-6-(1-methyl-1H-pyrazol-4-yl)pyrazolo[1,5-a]pyrazin-4-yl)oxy)-3-methylcyclobutyl)-N-methylacrylamide]	< 1 nM	< 1000 nM	
C=CC(=O)N1CC[C@]2(C1)C[C@](C)(Oc1nc(-c3cnn(C)c3)cn3nccc13)C2 [Example 212, rac-1-((2s,4r)-2-methyl-2-((6-(1-methyl-1H-pyrazol-4-yl)pyrazolo[1,5-a]pyrazin-4-yl)oxy)-6-azaspiro[3.4]octan-6-yl)prop-2-en-1-one]	1 to 10 nM		1000 to 10000 nM
C=CC(=O)N1CC[C@]2(C1)C[C@@](C)(Oc1nc(-c3cnn(C)c3)cn3nccc13)C2 [Example 213, rac-1-((2r,4s)-2-methyl-2-((6-(1-methyl-1H-pyrazol-4-yl)pyrazolo[1,5-a]pyrazin-4-yl)oxy)-6-azaspiro[3.4]octan-6-yl)prop-2-en-1-one]	1 to 10 nM		1000 to 10000 nM
C=CC(=O)N(C)[C@@H]1C[C@@H](Oc2nc(-c3cnn(C)c3)cn3nccc23)C1(C)C [Example 220, N-((1R,3R)-2,2-dimethyl-3-((6-(1-methyl-1H-pyrazol-4-yl)pyrazolo[1,5-a]pyrazin-4-yl)oxy)cyclobutyl)-N-methylacrylamide]	1 to 10 nM	1000 to 10000 nM	
